From US8557833B2, “Aminopyrimidines useful as kinase inhibitors” (priority 2005, dated 2013) come the findings set out here.

Assay [1] has as its target N-terminally truncated Abl kinase. As to the kind of experiment: Abl kinase activity inhibition assay, coupled enzyme. Type of assay: biochemical. The conditions noted are these: read-out: Abl (wild) Ki; 110 μM ATP, 30° C., 21 nM Abl kinase. As for the experimental part: Final concentrations of the components of the coupled enzyme system were 2.5 mM phosphoenolpyruvate, 200 μM NADH, […] pyruvate kinase and 20 μg/ml lactate dehydrogenase.
An assay stock buffer solution was prepared containing all of the reagents listed above with the exception of ATP and the test compound of interest. […] Rates of reaction were obtained using a Molecular Devices Spectramax plate reader (Sunnyvale, Calif.) over 10 min at 30° C. The Ki values were determined from the residual rate data as a function of inhibitor concentration using nonlinear regression (Prism 3.0, Graphpad Software, San Diego, Calif.).

The target in another assay is T1, FLT-3 (Homo sapiens, UniProt P36888).
T1 sequence (P36888 27-993): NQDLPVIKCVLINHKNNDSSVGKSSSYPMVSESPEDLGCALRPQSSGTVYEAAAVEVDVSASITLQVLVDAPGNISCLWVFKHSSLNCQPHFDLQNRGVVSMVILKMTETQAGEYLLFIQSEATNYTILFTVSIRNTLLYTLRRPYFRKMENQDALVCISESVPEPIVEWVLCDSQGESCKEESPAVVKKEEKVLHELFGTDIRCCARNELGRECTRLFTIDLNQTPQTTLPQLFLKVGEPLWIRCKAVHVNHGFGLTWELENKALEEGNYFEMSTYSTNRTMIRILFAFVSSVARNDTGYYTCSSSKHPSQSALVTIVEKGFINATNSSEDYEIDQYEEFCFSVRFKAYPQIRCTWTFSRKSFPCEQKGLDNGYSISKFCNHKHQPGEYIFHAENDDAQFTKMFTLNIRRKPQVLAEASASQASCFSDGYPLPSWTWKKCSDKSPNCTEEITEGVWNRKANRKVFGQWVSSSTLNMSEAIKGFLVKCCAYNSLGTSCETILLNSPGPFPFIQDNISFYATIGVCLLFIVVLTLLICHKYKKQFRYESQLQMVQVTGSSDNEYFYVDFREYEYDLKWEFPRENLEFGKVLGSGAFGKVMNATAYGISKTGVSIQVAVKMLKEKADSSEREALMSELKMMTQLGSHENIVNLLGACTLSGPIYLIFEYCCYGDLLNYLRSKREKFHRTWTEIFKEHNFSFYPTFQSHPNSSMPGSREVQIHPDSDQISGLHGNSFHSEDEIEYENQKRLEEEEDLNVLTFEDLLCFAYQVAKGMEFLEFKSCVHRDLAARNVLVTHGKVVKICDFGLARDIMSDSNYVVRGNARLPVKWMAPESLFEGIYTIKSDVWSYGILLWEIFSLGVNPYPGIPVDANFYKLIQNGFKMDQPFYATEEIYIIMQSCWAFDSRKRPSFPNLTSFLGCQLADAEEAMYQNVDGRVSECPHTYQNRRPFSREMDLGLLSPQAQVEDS
The assay can be described thus: FLT-3 inhibition assay, radiometric filter-binding. Type of assay: biochemical. As for the experimental part: This assay monitors the 33P incorporation into a substrate poly(Glu, Tyr) 4:1 (pE4Y). […] Final substrate concentrations in the assay were 90 μM ATP and 0.5 mg/ml pE4Y (both from Sigma Chemicals, St Louis, Mo.). […] Reactions were carried out at room temperature.
Two assay solutions were prepared. Solution 1 contains 100 mM HEPES (pH 7.5), 10 mM MgCl2, 25 mM NaCl, 1 mg/ml pE4Y and […] (containing 0.3 mCi of [γ-33^P]ATP for each reaction). Solution 2 contains 100 mM HEPES (pH 7.5), 10 mM MgCl2, 25 mM NaCl, 2 mM DTT, 0.02% BSA and 3 nM FLT-3. The assay was run on a 96 well plate by mixing 50 μl each of Solution 1 and […] of the compounds of the present invention. The reaction was initiated with Solution 2. […] All of the reaction volume was then transferred to a filter plate and washed with 5% TCA by a Harvester 9600 from TOMTEC (Hamden, Conn.). The amount of ^33P incorporation into pE4y was analyzed by a Packard Top Count Microplate Scintillation Counter (Meriden, Conn.). The data was fitted using Prism software to get an IC50 or Ki.

For the next assay, the target named is T2, JAK3 (Homo sapiens, UniProt P52333).
T2 sequence (P52333 1-1124): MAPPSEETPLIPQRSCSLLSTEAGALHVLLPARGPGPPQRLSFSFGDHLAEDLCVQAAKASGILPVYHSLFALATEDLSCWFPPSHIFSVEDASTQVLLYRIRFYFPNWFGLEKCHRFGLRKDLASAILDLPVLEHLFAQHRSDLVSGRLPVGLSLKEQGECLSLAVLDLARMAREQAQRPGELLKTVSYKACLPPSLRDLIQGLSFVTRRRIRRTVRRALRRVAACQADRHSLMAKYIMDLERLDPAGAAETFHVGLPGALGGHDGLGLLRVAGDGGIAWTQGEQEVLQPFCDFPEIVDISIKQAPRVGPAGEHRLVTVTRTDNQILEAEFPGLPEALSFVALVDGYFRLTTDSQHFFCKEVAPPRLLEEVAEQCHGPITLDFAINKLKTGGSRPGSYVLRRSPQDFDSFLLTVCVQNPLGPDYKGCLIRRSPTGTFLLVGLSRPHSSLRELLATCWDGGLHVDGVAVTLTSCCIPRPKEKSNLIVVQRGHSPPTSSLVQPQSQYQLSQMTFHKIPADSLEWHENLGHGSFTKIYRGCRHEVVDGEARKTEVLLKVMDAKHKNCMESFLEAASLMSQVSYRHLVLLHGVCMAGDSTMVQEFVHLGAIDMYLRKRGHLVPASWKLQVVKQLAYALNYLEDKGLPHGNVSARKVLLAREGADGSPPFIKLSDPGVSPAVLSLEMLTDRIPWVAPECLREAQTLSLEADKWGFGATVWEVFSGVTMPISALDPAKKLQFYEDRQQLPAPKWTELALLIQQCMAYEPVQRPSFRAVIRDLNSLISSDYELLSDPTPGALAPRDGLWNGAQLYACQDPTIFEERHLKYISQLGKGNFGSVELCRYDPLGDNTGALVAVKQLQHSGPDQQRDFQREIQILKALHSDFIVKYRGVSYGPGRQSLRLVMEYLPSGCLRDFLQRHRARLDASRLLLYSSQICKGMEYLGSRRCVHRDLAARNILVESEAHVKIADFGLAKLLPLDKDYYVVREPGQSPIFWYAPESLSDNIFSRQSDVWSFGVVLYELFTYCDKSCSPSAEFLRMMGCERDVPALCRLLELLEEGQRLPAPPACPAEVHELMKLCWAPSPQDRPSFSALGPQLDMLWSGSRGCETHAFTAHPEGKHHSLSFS
As to the kind of experiment: biochemical.

Setting [2] is: 5 μM ATP, 1 μM poly(Glu)4Tyr, 25° C., 1 nM JAK3, read-out: JAK-3 Ki.
The mark [3] stands for this setting: 90 μM ATP, 0.5 mg/ml pE4Y, room temperature, read-out: FLT-3 Ki.

Where two headings read alike, the source gives them in different places.

Chain of N-terminally truncated Abl kinase (P00519 28-1130): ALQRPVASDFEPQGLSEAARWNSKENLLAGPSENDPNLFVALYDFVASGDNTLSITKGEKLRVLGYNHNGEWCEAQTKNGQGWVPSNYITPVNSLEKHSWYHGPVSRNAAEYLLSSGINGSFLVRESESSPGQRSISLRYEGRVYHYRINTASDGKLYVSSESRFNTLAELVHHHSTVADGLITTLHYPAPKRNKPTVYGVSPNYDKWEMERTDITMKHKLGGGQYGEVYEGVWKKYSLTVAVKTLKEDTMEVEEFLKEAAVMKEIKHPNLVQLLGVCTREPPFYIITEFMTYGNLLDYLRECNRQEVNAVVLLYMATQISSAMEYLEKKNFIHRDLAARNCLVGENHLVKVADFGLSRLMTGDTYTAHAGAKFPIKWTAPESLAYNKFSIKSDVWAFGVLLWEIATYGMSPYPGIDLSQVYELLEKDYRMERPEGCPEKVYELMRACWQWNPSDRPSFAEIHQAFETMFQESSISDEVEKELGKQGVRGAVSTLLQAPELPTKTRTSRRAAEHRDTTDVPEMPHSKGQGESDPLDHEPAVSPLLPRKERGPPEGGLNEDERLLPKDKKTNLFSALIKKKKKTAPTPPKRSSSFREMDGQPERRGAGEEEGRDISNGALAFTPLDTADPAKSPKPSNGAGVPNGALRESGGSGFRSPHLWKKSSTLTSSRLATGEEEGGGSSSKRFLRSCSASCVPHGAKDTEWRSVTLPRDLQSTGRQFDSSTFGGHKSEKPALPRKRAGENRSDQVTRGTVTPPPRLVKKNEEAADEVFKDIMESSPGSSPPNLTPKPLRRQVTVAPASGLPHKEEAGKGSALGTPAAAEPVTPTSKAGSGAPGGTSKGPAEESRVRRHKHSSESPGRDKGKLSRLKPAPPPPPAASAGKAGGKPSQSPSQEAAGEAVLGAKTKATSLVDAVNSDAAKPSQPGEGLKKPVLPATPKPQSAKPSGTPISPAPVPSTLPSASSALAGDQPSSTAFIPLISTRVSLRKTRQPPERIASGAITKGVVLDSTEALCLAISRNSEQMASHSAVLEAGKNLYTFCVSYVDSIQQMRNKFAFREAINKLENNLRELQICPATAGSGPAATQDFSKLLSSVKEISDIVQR
Description for JAK3: Reactions were carried out in a kinase buffer containing 100 mM HEPES (pH 7.4), 1 mM DTT, 10 mM MgCl2, 25 mM NaCl, and 0.01% BSA. Substrate concentrations in the assay were 5 μM ATP (200 uCi/μmole ATP) and 1 μM poly(Glu)4Tyr. Reactions were carried out at 25° C. and 1 nM JAK3.
To each well of a 96 well polycarbonate plate was added 1.5 μl of a candidate JAK3 inhibitor along with 50 μl of kinase buffer containing 2 μM poly(Glu)4Tyr and 10 μM ATP. This was then mixed and 50 μl of kinase buffer containing 2 nM JAK3 enzyme was added to start the reaction. After 20 minutes at room temperature (25 C), the reaction was stopped with 50 μl of 20% trichloroacetic acid (TCA) that also contained 0.4 mM ATP. The entire contents of each well were then transferred to a 96 well glass fiber filter plate using a TomTek Cell Harvester. After washing, 60 μl of scintillation fluid was added and ^33P incorporation detected on a Perkin Elmer TopCount.

Regarding `Cc1cc(Nc2cc(N3CCC3)nc(Sc3ccc(NC(=O)c4c(Cl)cccc4Cl)cc3)n2)n[nH]1` [Compound I-11], the values for the Ki (in assay [1]; at FLT-3) were 21 nM and 110 nM, respectively.

For the molecule `O=C(Nc1ccc(Sc2nc(Nc3cc(C4CC4)[nH]n3)cc(N3CCC3)n2)cc1)c1ccccc1Cl` [Compound I-17], the inhibitory constant (Ki) is 79 nM at JAK3 (setting [2]) and 100 nM on FLT-3.

With `Cc1cc(Nc2cc(N3CCC3)nc(Sc3ccc(NC(=O)c4c(F)cccc4F)cc3)n2)[nH]n1` [Compound I-2, N-{4-[4-Azetidin-1-yl-6-(5-methyl-2H-pyrazol-3-ylamino)-pyrimidin-2-ylsulfanyl]-phenyl}-2,6-Difluoro-benzamide], the figures for the Ki (in assay [1]; on FLT-3 (setting [3])) were 7 nM and 180 nM, respectively.

Turning to `CCc1cccc(C(=O)Nc2ccc(Sc3nc(Nc4cc(C)[nH]n4)cc(N4CCC4)n3)cc2)c1Cl` [Compound I-22], the inhibitory constant (Ki) on JAK3 was 62 nM; at FLT-3 it was 190 nM.

Regarding `Cc1cc(Nc2cc(N3CCC3)nc(Sc3ccc(NC(=O)c4ccccc4C(F)(F)F)cc3)n2)[nH]n1` [Compound I-14], the Ki in assay [1] was 36 nM; on FLT-3 (setting [3]), 170 nM.

Regarding `Cc1cc(Nc2cc(N3CCC3)nc(Sc3ccc(NC(=O)c4cccc(C)c4Cl)cc3)n2)n[nH]1` [Compound I-20], the inhibition constant (Ki) on JAK3 worked out at 61 nM; on FLT-3, 240 nM.

Consider `Cc1cc(Nc2cc(N3CCC3)nc(Sc3ccc(NC(=O)c4ccccc4OC(F)(F)F)cc3)n2)[nH]n1` [Compound I-8], for which the Ki on FLT-3 came to 170 nM.

The molecule `Cc1cc(Nc2cc(N3CCC3)nc(Sc3ccc(NC(=O)c4cc(Cl)ccc4Cl)cc3)n2)n[nH]1` [Compound I-21] gave an inhibition constant (Ki) on FLT-3 of 550 nM.

Consider `Cc1cc(Nc2cc(N3CCC3)nc(Sc3ccc(NC(=O)c4ccccc4Cl)cc3)n2)[nH]n1` [Compound I-1, N-{4-[4-Azetidin-1-yl-6-(5-methyl-2H-pyrazol-3-ylamino)-pyrimidin-2-ylsulfanyl]-phenyl}-2-chloro-benzamide], for which the values for the inhibition constant Ki (at JAK3; in assay [1]; on FLT-3 (setting [3])) were 160 nM, 36 nM and 100 nM, respectively.

Consider `Cc1cc(Nc2cc(N3CCC3)nc(Sc3ccc(NC(=O)c4ccccc4F)cc3)n2)[nH]n1` [Compound I-3], for which the Ki on FLT-3 (setting [3]) stood at 220 nM.

Take `Cc1cc(Nc2cc(N3CCC3)nc(Sc3ccc(NC(=O)c4cccc(C(F)(F)F)c4F)cc3)n2)n[nH]1` [Compound I-13]: the Ki at JAK3 came out at 220 nM; at FLT-3, 350 nM.

`COc1ccccc1C(=O)Nc1ccc(Sc2nc(Nc3cc(C)[nH]n3)cc(N3CCC3)n2)cc1` [Compound I-6] returned a Ki at FLT-3 of 120 nM.

Take `Cc1cc(Nc2cc(N3CCC3)nc(Sc3ccc(NC(=O)c4cccc(Cl)c4F)cc3)n2)n[nH]1` [Compound I-15]: the values for the inhibitory constant (Ki) (at JAK3 (setting [2]); in assay [1]; on FLT-3) were 120 nM, 31 nM and 160 nM, respectively.

For the molecule `Cc1cc(Nc2cc(N3CCC3)nc(Sc3ccc(NC(=O)c4ccccc4C(F)F)cc3)n2)[nH]n1` [Compound I-19], the inhibitory constant (Ki) on FLT-3 (setting [3]) came out at 160 nM.

`Cc1cc(Nc2cc(N3CCC3)nc(Sc3ccc(NC(=O)c4cccc(Cl)c4)cc3)n2)n[nH]1` [Compound I-12]: the affinity at FLT-3, expressed as Ki, was 540 nM.

Take `Cc1cc(Nc2cc(N3CCC3)nc(Sc3ccc(NC(=O)c4ccccc4C)cc3)n2)[nH]n1` [Compound I-5]: the inhibition constant Ki amounted to 68 nM in assay [1] and 70 nM at FLT-3 (setting [3]).

Turning to `Cc1cccc(C(=O)Nc2ccc(Sc3nc(Nc4cc(C)[nH]n4)cc(N4CCC4)n3)cc2)c1` [Compound I-4], at FLT-3, the inhibition constant Ki was 330 nM.

One may read the Ki as a dissociation constant, usually derived from enzyme kinetics or from competition with a known ligand.
